Results published in article PMC10221320.
Positions of bridges follow the written chain, without caps; N, C: chain ends. No end group written: not given here.

Key:
[1] = intraperitoneal administration; ref [40]; cited from earlier work
rat ASIC3 (rASIC3) [2] = assay: Two-electrode voltage clamp, rASIC3 in Xenopus laevis oocytes; type: cell-based; conditions: 1 μM; pH drop from 7.4 to 5.5; −50 mV; n = 5; recombinant peptide
CD-1 mice [3] = assay: Complete Freund's adjuvant-induced acute inflammation; type: in vivo, mouse
Procedure: (§1) The animal studies were performed under the European Commission’s legislation (Directives 86/609/EEC, 2010/63/EU), the National Standard of the Russian Federation “Good Laboratory Practice” (GOST P 53434-2009, Moscow, Russia), and Committee on Ethics of Laboratory Animal Handling № 05/21, 20 September 2021 and 08/21, 30 December 2021 protocols (PIBOC FEB RAS). Adult female CD-1 mice weighing 25 ± 2 g were subjected to a 12 h light–dark cycle at room temperature and with ad libitum access to food and water. There were seven or eight individuals in each group.
Three groups of animals were treated with peptides at doses of 0.01, 0.1 and 1 mg/kg (intravenously) 30 min before the induction of inflammation. The control animal group received an identical volume of saline. The positive control group received diclofenac (Hemofarm A.D., Vršac, Serbia) at a dose of 1 mg/kg. The edema was induced by a 20 µL injection of complete Freund’s adjuvant (CFA) (MP Biomedicals, Irvine, CA, USA) in the hind paw pad. The resulting edema was measured at 1, 2, 4, 24 and 48 h using a plethysmometer (Ugo Basile, Gemonio (VA), Italy). The anti-inflammatory threshold was estimated as a decrease in the paw volume and volume growth index (%), calculated using the formula: Volume Growth Index (%) = [(VCFA − Vi)/Vi] × 100, (1), where VCFA is the volume of the paw after the introduction of CFA and Vi is the volume of the paw before the introduction of CFA.

rat ASIC1a (rASIC1a) [4] = system: rat ASIC1a (rASIC1a); set-up: method as in PMID 29684594, PMID 32326130; conditions: ref [40],[41]; read-out: IC50, inhibition of rASIC1a; cited from earlier work
CD-1 mice [5] = assay: Carrageenan-induced paw edema; type: in vivo, mouse
Procedure: as §1
Three groups of animals were treated with peptides at doses of 0.01, 0.1 and 1 mg/kg (intravenously) 30 min before the induction of inflammation. The control animal group received an identical volume of saline. The positive control group received diclofenac (Hemofarm A.D., Vršac, Serbia) at a dose of 1 mg/kg. The edema was induced by a 20 µL injection of 1.5% solution of λ-carrageenan (Sigma Aldrich, St. Louis, MO, USA) in the hind paw pad. The resulting edema was measured after 1, 2, 4 and 24 h using a plethysmometer (Ugo Basile, Gemonio (VA), Italy). The anti-inflammatory threshold was estimated as a decrease in the paw volume and volume growth index (%), calculated using the formula: Volume Growth Index (%) = [(VC − Vi)/Vi] × 100, (1), where VC is the volume of the paw after the introduction of carrageenan and Vi is the volume of the paw before the introduction of carrageenan.

rat ASIC3 (rASIC3) [6] = conditions: ref [41]; read-out: EC50, potentiation of rASIC3 current; cited from earlier work
CD-1 mice [7] = assay: Acetic-acid-induced writhings (acid-induced muscle pain model); type: in vivo, mouse
Procedure: as §1
Three groups of animals were treated with peptides at doses of 0.01, 0.1 and 1 mg/kg (intravenously) 15 min before an injection of 300 μL of a 0.7% acetic acid solution. The control animal group received an identical volume of saline. The positive control group received intravenously a dose 1 mg/kg of diclofenac (Hemofarm A.D., Vršac, Serbia), a commercial drug of the NSAID group. Fifteen minutes immediately after acid administration, the number of writhings and the writhing time (time in a spasmodic state) were counted.

rat ASIC1a (rASIC1a) [8] = assay: Two-electrode voltage clamp, rASIC1a in Xenopus laevis oocytes; type: cell-based; conditions: 1 μM; pH drop from 7.4 to 5.5; −50 mV; n = 5; recombinant peptide
CD-1 mice [9] = assay: Acute toxicity, intravenous; type: in vivo, mouse; conditions: 1 mg/kg i.v., single; 24 h observation
Procedure: as §1
Lyophilized peptides were dissolved in 0.9% NaCl solution (saline) and administered once intravenously at doses of 1 mg/kg; the control group received saline (10 mL/kg or 250 µL/mouse). Then, alterations in physiological parameters, such as motility, behavioral responses and physical activity, were registered in each of the animal groups over 24 h.

[10] = i.v. 15 min before 0.7% acetic acid

In the case of “GTPCDCYGYTGVYWFMLSRCPSGYGYNLSCHYFMGICCVKR (disulfide 4-37, 6-30, 20-38 (inferred)) [Hmg 1b-4]”, the maximal nontoxic dose [1] is listed as 10 mg/kg, the “potentiation of rASIC3 currents” value (rat ASIC3 (rASIC3) [2]) is listed as 29% and the “decrease in paw volume and growth index of edema” value (CD-1 mice [3]; 1 mg/kg i.v.) is listed as “more than 1.5 times”. The anti-inflammatory effect (CD-1 mice [3]; 0.01, 0.1 and 1 mg/kg i.v. 30 min before CFA) was “demonstrated an anti-inflammatory effect at all tested doses”, the “paw edema volume decrease compared with diclofenac” value (CD-1 mice [3]; 1 and 0.1 mg/kg i.v., diclofenac 1 mg/kg i.v.) was “greater than the decreases caused by diclofenac” and the “anti-inflammatory effectiveness vs other APETx-like / sea anemone peptides” value (CD-1 mice [3]; comparison with APETx2 and Ugr 9-1 data of ref [34]) was “significantly superior not only to Hmg 1b-2, but also to APETx2 and Ugr 9-1”. For the same sequence, the IC50 (rat ASIC1a (rASIC1a) [4]) was 1250 nM, the “reduction of volume of paw edema vs control” value (CD-1 mice [5]; 0.01 mg/kg i.v., only after 24 h) was 1.5 times and the “paw volume relative to original values” (CD-1 mice [5]; 0.1 mg/kg i.v., 24 h) was “reduced the volume of the paw almost to the original values”. The “reduction of paw edema” value (CD-1 mice [5]; 0.1 mg/kg i.v., after 24 h) was about 4 times, the “reduction of paw edema” value (CD-1 mice [5]; 1 mg/kg i.v., after 24 h) was “approximately 2 times” and the anti-inflammatory effect (CD-1 mice [5]; 0.1 and 1 mg/kg i.v., after 2, 4 and 24 h) was “statistically significant anti-inflammatory effect”. For the same sequence, the “effect compared with diclofenac” value (CD-1 mice [5]; 1 and 0.1 mg/kg i.v. at 24 h) was “exceeded the effect of diclofenac”, the “reduction of paw edema” value (CD-1 mice [5]; 1 and 0.1 mg/kg i.v., after 4 h) was 1.5 times and the “paw volume and growth index of edema” value (CD-1 mice [5]; i.v., at 1 and 2 h) was “decreased slightly”. The EC50 (rat ASIC3 (rASIC3) [6]) was 1530 ± 70 nM, the “difference in analgesic activity between the two peptides” value (CD-1 mice [7]; i.v.) was “no significant difference in analgesic activity between each other” and the “reduction in duration of writhings vs control” value (CD-1 mice [7]; [10]) was “more than 2.5 times”. The “reduction in number of writhings vs control” value (CD-1 mice [7]; [10]) was 1.5 times, the “inhibition of rASIC1a currents” value (rat ASIC1a (rASIC1a) [8]) was 45% and the toxicity symptoms (CD-1 mice [9]) was “did not cause the symptoms of neurotoxicity or obvious changes in the behavior of animals”.
